Laboratory results: ChEMBL document CHEMBL4190201, “Anti-inflammatory 12,20-Epoxypregnane and 11,12-seco-Pregnane Glycosides from the Stems of Hoya kerrii” (J Nat Prod, 2017)

Columns and labels:
RAW264.7 [1] = experiment: Antiinflammatory activity in mouse RAW264.7 cells assessed as inhibition of LPS-induced nitric oxide production by measuring nitrite accumulation by Griess method; type: functional, cell-based
RAW264.7 [2] = experiment: Cytotoxicity in LPS-stimulated mouse RAW264.7 cells at =>100 uM by MTT assay; type: cell-based
RAW264.7 [3] = experiment: Antiinflammatory activity in mouse RAW264.7 cells assessed as inhibition of LPS-induced iNOS mRNA expression after 20 hrs by RT-PCR method; type: functional, cell-based
RAW264.7 [4] = experiment: Antiinflammatory activity in mouse RAW264.7 cells assessed as inhibition of LPS-induced COX2 mRNA expression after 20 hrs by RT-PCR method; type: functional, cell-based
RAW264.7 [5] = experiment: Cytotoxicity in LPS-stimulated mouse RAW264.7 cells at =>10 uM by MTT assay; type: cell-based

Row | Compound | IC50 (RAW264.7 [1]; read-out: IC50) | also measured
1 | CO[C@@H]1C[C@H](O[C@H]2CC[C@@]3(C)C(=CC[C@@H]4[C@@H]3C(=O)[C@@H]3O[C@H](C)[C@@H]5CC[C@@]4(O)[C@]35C)C2)O[C@H](C)[C@@H]1O | 96.5 µM | Activity (RAW264.7 [2]): Toxic
2 | O=C(/C=C/c1ccc(O)c(O)c1)OCCc1ccccc1 [CAFFEIC ACID PHENETHYL ESTER] | 9.3 µM | 
3 | CC(=O)Oc1ccccc1C(=O)O [ASPIRIN] |  | IC50 (RAW264.7 [1]): 43.2 µM
4 | CO[C@@H]1C[C@H](O[C@H]2CC[C@@]3(C)C(=CC[C@]4(O)[C@@H]3C(=O)[C@@H]3O[C@H](C)[C@@H]5CC[C@@]4(O)[C@]35C)C2)O[C@H](C)[C@@H]1OC(C)=O | 87.8 µM | 
5 | CO[C@@H]1C[C@H](O[C@H]2CC[C@@]3(C)C(=CC[C@]4(O)[C@@H]3C(=O)[C@@H]3OC(C)[C@@H]5CC[C@@]4(O)[C@]35C)C2)O[C@H](C)[C@@H]1O[C@@H]1O[C@H](CO)[C@@H](O)[C@H](O)[C@H]1O (stereo partly drawn) | > 100 µM | 
6 | N=C(NCCC[C@H](N)C(=O)O)N[N+](=O)[O-] [NITROARGININE] | 37.7 µM | 
7 | CO[C@@H]1C[C@H](O[C@H]2CC[C@@]3(C)C(=CC[C@@H]4[C@@H]3C(=O)[C@]3(O)O[C@H](C)[C@@H]5CC[C@@]4(O)[C@@]53C)C2)O[C@H](C)[C@@H]1O | 84 µM | 
8 | CO[C@@H]1C[C@H](O[C@H]2CC[C@@]3(C)C(=CC[C@]4(O)[C@@H]3C(=O)[C@@H]3O[C@H](C)[C@@H]5CC[C@@]4(O)[C@]35C)C2)O[C@H](C)[C@@H]1O | 62.5 µM | 
9 | CO[C@@H]1C[C@H](O[C@H]2CC[C@@]3(C)C(=CC[C@@H]4[C@@H]3C(=O)O[C@@]43CC[C@H]4[C@H](C)OC(=O)[C@]43C)C2)O[C@H](C)[C@@H]1OC(C)=O | 60.4 µM | 
10 | COC(=O)[C@H]1[C@@H](C(=O)CC[C@H]2[C@H](C)OC(=O)[C@H]2C)CC=C2C[C@@H](O[C@H]3C[C@@H](OC)[C@@H](OC(C)=O)[C@@H](C)O3)CC[C@@]21C | 12.6 µM | Activity (RAW264.7 [3]): Dose-dependent effect; Activity (RAW264.7 [4]): Dose-dependent effect; Activity (RAW264.7 [2]): Toxic
11 | CC(C)Cc1ccc(C(C)C(=O)O)cc1 (stereo not drawn) [IBUPROFEN] | 54.5 µM | 
12 | COc1ccc2c(c1)c(CC(=O)O)c(C)n2C(=O)c1ccc(Cl)cc1 [INDOMETHACIN] | 46.5 µM | 
13 | COC(=O)[C@H]1[C@@H](C(=O)CC[C@H]2[C@H](C)OC(=O)[C@@H]2C)CC=C2C[C@@H](O[C@H]3C[C@@H](OC)[C@@H](O)[C@@H](C)O3)CC[C@@]21C | 87.3 µM | Activity (RAW264.7 [5]): Toxic
14 | COC(=O)[C@H]1[C@@H](C(=O)CC[C@H]2[C@H](C)OC(=O)[C@H]2C)CC=C2C[C@@H](O[C@H]3C[C@@H](OC)[C@@H](O)[C@@H](C)O3)CC[C@@]21C | 66.1 µM | 
15 | CO[C@@H]1C[C@H](O[C@H]2CC[C@@]3(C)C(=CC[C@@H]4[C@@H]3C(=O)[C@@H]3O[C@H](C)[C@@H]5CC[C@@]4(O)[C@]35C)C2)O[C@H](C)[C@@H]1O[C@@H]1O[C@H](CO)[C@@H](O)[C@H](O)[C@H]1O | > 100 µM | 
16 | COC(=O)[C@H]1[C@@H](C(=O)CC[C@H]2[C@H](C)OC(=O)[C@@H]2C)CC=C2C[C@@H](O[C@H]3C[C@@H](OC)[C@@H](OC(C)=O)[C@@H](C)O3)CC[C@@]21C | 31.6 µM | 
17 | CO[C@@H]1C[C@H](O[C@H]2CC[C@@]3(C)C(=CC[C@@H]4[C@@H]3C(=O)[C@@H]3O[C@H](C)[C@@H]5CC[C@@]4(O)[C@]35C)C2)O[C@H](C)[C@@H]1OC(C)=O | 91.2 µM | 
18 | CO[C@@H]1C[C@H](O[C@H]2CC[C@@]3(C)C(=CC[C@@H]4[C@@H]3C(=O)O[C@@]43CC[C@H]4[C@H](C)OC(=O)[C@]43C)C2)O[C@H](C)[C@@H]1O | 93.8 µM | 
